We go through seven molecules from patent publication US6444640B1, “Compositions of trail and DNA damaging drugs and uses thereof” (Ludwig Institute for Cancer Research, priority 1999, dated 2002).

The test system of data set [1] is DR5. Put plainly: Northern blot of DR5 expression in human glioma cell lines after drug treatment. The conditions noted are these: for basal level expression of ~4.4Kb DR5 transcripts after contact with drug: U87MG, A1207, U178 cells, Northern blot. Type of data set: cell-based. On the procedure: This first set of experiments was designed to determine whether chemotherapeutic agents which are used in treating gliomas could upregulate expression of DR5 in human glioma cell lines. This was apreliminary step to determine if wild type p53, which is found in de novo glioblastomas, could be exploited.
The human glioblastoma cell lines U87MG, A1207, and U178 were used. The first two of these cell lines are homozygous for wild type p53, while U178 cells express a wild type allele, and an allele with a mutation at codon 271. Samples of cells were treated with one of cis-diamminedichloroplatinum (II) (“CDDP” hereafter), ectoposide (“VP16” hereafter), or chloroethyl)-BCNU. The U87MG and U178 cells received either 0, 1, or 4 ug/ml doses of CDDP; 0, 8, or 16 ug/ml doses of VP16, or 0, 100, or 200 μM doses of BCNU. The A1207 cells received 0, 5, or 20 ug/ml of CDDP, 0, 8 or 16 ug/ml of VP16, or 0, 100, or 200 μM doses of BCNU.
The cells were treated with the drug at an indicated dosage for 16 hours, after which they were harvested, and total RNA was extracted, following standard methods. Then, 15 ug samples were size fractionated on a 1% agarose formaldehyde gel, and transferred to a nylon membrane. These samples were then probed with a human DR5 cDNA probe, 583 base pairs long. This had beenz prepared via RT-PCR of total RNA of U87MG cells using:
The hybridization was carried out at 68° C. for 2 hours, followed by washing in 0.5×SSC and 0.1% SDS at 58° C. for 15 minutes. The membranes were then exposed to film at −80° C. with an intensifying screen. In order to confirm that RNA had in fact been loaded, 28SrRNA was stained with methylene blue.

Data set [2] concerns astrocytes from p53 knockout mice. The settings on record: in vitro; cited from earlier work.
The test system of data set [3] is poly (ADP-ribase) polymerase. The data set is described as follows: Western blot for PARP cleavage (activation of effector caspases). Type of data set: cell-based, human. The conditions noted are these: 24 hours after treatment. On the procedure:
The direct assessment of activation of effector caspases was examined by assaying for cleavage of poly (ADP-ribase) polymerase, or “PARP”, after treatment with combinations of a DNA damaging agent (CDDP or VP16), TRAIL, DR5-Fc or Fc, and the caspase inhibitor, Z-Asp-CH2-DCB. This was determined via Western blotting, where 20 ug of clarified protein lysate was loaded onto SDS gels 24 hours after treatment, electrophoresed, transferred to membranes, and then probed with monoclonal antibodies against PARP. Full length PARP has a molecular weight of about 116 kilodalton and, when cleaved, one fragment is 85 kilodaltons.
In general terms: In western blotting, separated proteins are transferred to a membrane and probed.

Data set [4] concerns U87MG cells. The data set is described as follows: Subcutaneous U87MG tumors in nude mice, Example 7. Type of data set: in vivo. The conditions noted are these: single agent. On the procedure: To test this, U87MG cells (2×10^6) were suspended in 0.1 ml PBS, and then injected subcutaneously into the right flank of 4-5 week old female nude mice, of BALB/C background. Tumors were permitted to become established, and then grow for 20 days, reaching an approximate innate volume of 150 mm^3. Then, either CDDP (3 mg/kg), or sterile normal saline was administered intraperitoneally on days 20,21,22,30,31, and 32. Mice also received either fusion protein FLAG-TRAIL (200 ug), or a mock control. The FLAG-TRAIL fusion protein described by Degli-Esposti, et al., J. Exp. Med 186: 1165-1170 (1997), incorporated by reference, was prepared via standard recombinant methods. Mock controls were prepared by carrying out the same protocol used to produce the FLAG-TRAIL, but without a vector which encoded the fusion protein. Cell lysate was used as the control. The FLAG-TRAIL or control was administered via intraveneous and intraperitoneal injections 16 hours and 24 hours following CDDP treatment, i.e., on days 21,22,23, 31,32 and 33. Growth of the tumors was measured at 2 day intervals, in accordance with Huang, et al., J. Biol Chem 272: […] (1997).

The subject of data set [5] is U87MG cells. Put plainly: MTT survival assay. The conditions noted are these: for cell viability, single agent: TRAIL 0.1 ug/ml, CDDP 4 ug/ml, VP16 16 ug/ml, 24 hours.
Method: (§1) Experiments were then carried out to determine if combining TRAIL with the damaging agents would enhance cytotoxicity. The method employed to determine if combining TRAIL with the damaging agents would enhance cytotoxicity was the 3-(4,5-dimethylthiazol-2-yl)-2,5-diphenyl tetrazolum bromide (“MTT”) survival assay, described by Mosmann, et al., J. Immunol. […] Cells (U87MG) were plated, at 1×10^4 cells/well in 96 well microtiter plates overnight.
(§2) The cytotoxic effect of TRAIL, in combination with one of the DNA damaging agents discussed supra, i.e., CDDP, VP16, as BCNU was tested, by either adding TRAIL alone, the drug alone, or TRAIL plus the drug, in a two component combination, with DR5-Fc, referred to supra, or with Fc. The dosages were as provided supra.
In data set [6] the test system is U87MG cells. Put plainly: Apoptosis of U87MG cells (TUNEL, flow cytometry) with caspase inhibitor. The format is cell-based, human. On the procedure:
In these experiments, the mechanism by which the cell death caused by combination of TRAIL and DNA damaging agents was studied further. U87MG cells were plated overnight, and then treated with either TRAIL alone (0.1 ug/ml), CDDP alone (4 ug/ml) VP16 alone (16 ug/ml) TRAIL and CDDP, at the recited doses, or TRAIL plus VP16, at the recited doses. The cells were treated for 44 hours, collected, fixed in 2% formaldehyde, and permeabilized in 0.05% Tween-20 in bovine serum albumin solution.
The cells were then incubated with TUNEL (terminal deoxynucleotidyl transferase mediated nick end labeling) solution, at 37° C. for 1 hour. Those cells which stained positively with fluorescein were analyzed via flow cytometry. The morphology of the dead cells was typical of apoptosis.
TRAIL is known to induce apoptosis through activation of effector caspases. See, e.g., Wu, et al., Nature Genet 17: 141-143 (1997); Wiley et al., Immunity 3: 673-682 (1995); Pitti, et al., J. Biol Chem 271: 12687-12690 (1996); Pan, et al., Science 277: 815-818 (1997); Sheridan, et al., Science 277: 818-821 (1997); Walczak, et al., EMBO J. 16: 5386-5397 (1997).
On the technique in general: In flow cytometry, cells or beads pass a laser one at a time.

Data set [7] has as its system U87MG cells.
Method: as §1, §2

Read-outs that look alike come from different tables or passages of the source.

Consider `O=NN(CCCl)C(=O)NCCCl` [BCNU, 1,3 bis (2-chloroethyl)-1-nitrosourea], for which the “basal level expression of ~4.4Kb DR5 transcripts after contact with drug” value (shortened to “basal level expression”) in data set [1] was “lesser effect”. The “sensitivity of p53 knockout astrocytes compared with wild type astrocytes” value in data set [2] is listed as “more sensitive”.

As to `N.N.[Cl][Pt][Cl]` [CDDP, cis-diamminedichloroplatinum (II)], in data set [1], the “basal level expression” value is given as “increased significantly”. The “time of contact needed for induction of DR5” value in data set [1] (glioblastoma cell lines) is 16 h. Also, in data set [3], the “PARP cleavage product (85 kilodaltons)” value was “not”. The “tumor growth compared with combined drugs” value in data set [4] is reported as “grew significantly faster”. The “cell viability, single agent” value in data set [5] is “sublethal”.

In the case of `COc1cc([C@@H]2c3cc4c(cc3[C@@H](O[C@@H]3O[C@@H]5CO[C@@H](C)O[C@H]5[C@H](O)[C@H]3O)[C@H]3COC(=O)[C@H]23)OCO4)cc(OC)c1O` [VP16, ectoposide], the “basal level expression” value in data set [1] is “increased significantly”. The “PARP cleavage product (85 kilodaltons)” value in data set [3] is given as “not”. Also, in data set [5], the “cell viability, single agent” value is given as “sublethal”.

`O=C(O)C[C@H](NC(=O)OCc1ccccc1)C(=O)COC(=O)c1c(Cl)cccc1Cl` [Z-Asp-CH2-DCB]: in data set [6], the “apoptosis on treatment with TRAIL, one of CDDP or VP16, and the caspase inhibitor” value is “did not induce apoptosis”. Further, the “effect on PARP cleavage elicited by TRAIL and CDDP or VP16” value in data set [3] was “inhibited”. The “effect on synergistic cytotoxicity of TRAIL plus DNA damaging agent” value (“effect on synergistic cytotoxicity” below) in data set [5] (added to TRAIL plus CDDP or VP16) is given as “at levels obtained for single drugs”.

As for “DR5-Fc: a soluble fusion protein that competes for TRAIL”, the “effect on PARP cleavage elicited by TRAIL and CDDP or VP16” value in data set [3] is “inhibited”. Further, the “effect on synergistic cytotoxicity” value in data set [7] was “abolished”.

Take “extracellular domain of DR4 expressed as a fusion protein with Fc: extracellular domain of DR4 expressed as a fusion protein with Fc”: the “effect on synergistic cytotoxicity” value in data set [7] is recorded as “same elimination of synergistic cytotoxicity”.

B1: TRAIL: tumor necrosis factor related apoptosis inducing ligand; given in vivo as fusion protein FLAG-TRAIL (protein)
chain: TSEETISTVQEKQQNISPLVRERGPQRVAAHITGTRGRSNTLSSPNSKNEKALGRKINSWESSRSGHSFLSNLHLRNGELVIHEKGFYYIYSQTYFRFQEEIKENTKNDKQMVQYIYKYTSYPDPILLMKSARNSCWSKDAEYGLYSIYQGGIFELKENDRIFVSVTNEHLIDMDHEASFFGAFLVG
B1: the “PARP cleavage product (85 kilodaltons)” value in data set [3] was “not”. For the same molecule, the “tumor growth compared with combined drugs” value in data set [4] was “grew significantly faster”. For the same molecule, the “cell viability, single agent” value in data set [5] was “no effect on cell viability”. The “reduction of amount of TRAIL necessary for efficacy in combination versus alone” value in data set [5] (in combination with DNA damaging agent) is “about 100 fold”.
